Test results as given in patent US8846066B2, “Methods and related compositions for reduction of fat and skin tightening” (The Regents of the University of California, priority 2004, dated 2014).

Legend:
[1] = system: porcine skin (epidermis, dermis, subcutaneous tissue, muscle); experiment: Histology of full thickness porcine skin after injection
Method: Histology was performed by injecting stock reagent solutions (0.5 mL) into full thickness porcine skin at various levels (epidermis, dermis, and subcutaneous tissue) with 1.0 mL syringes and 30-gauge, 0.5 inch needles. Needle depth was visualized along the margin of the porcine tissue with the intent of saturating the target tissue. One hour after incubation with PBS at 37° C., multiple 5.0 mm biopsy specimens were obtained from the injected sites, each condition performed in triplicate. Tissue was fixed in formaldehyde, paraffin-embedded, and stained with hematoxylin-eosin. Specimens were evaluated by a board-certified dermatopathologist who was blinded to the treatment protocol.

porcine fat tissue = experiment: MTS assay in fresh porcine fat specimens; format: cell-based; settings: PBF or 5% solutions, 4 hours
Method: To measure cell viability after detergent treatment, HaCaT human keratinocyte cells were cultured in DMEM (Dulbecco's modified Eagle's medium) supplemented with 10% fetal calf serum, penicillin, and streptomycin. […] Cell viability was determined by an absorbance spectrophotometer (at 490 nm) after 4 hour incubation with the assay at 37° C. To determine cell viability in fresh tissue, fat specimens were incubated for 4 hours in 24 well plates with stock reagents and the MTS assay. Tissue specimens were then visualized for color change and the amount of MTS in their supernatants was measured by absorbance (at 490 nm). All studies were performed in triplicate. Absorbance at 490 nm (OD 490) is proportional to the number of living cells in the culture.
Porcine tissue was obtained immediately after sacrifice, shaved, and placed on ice for a maximum of four hours before use. […] Calcein retention was determined by tissue fluorescence using purple (411 nm) light and visually observing the emitted green (500 nm) light using an emission filters.
Fresh porcine skin was used to determine if the effects of these detergent substances on cultured cells were similar in tissue. […] The difference in fat cell viability between the solutions was quantified by measuring the absorbance (at 490) of the supernatants collected from the treated fat specimens (FIG. 3b). […]

adipocytes = experiment: Adipocyte survival on addition of PC to 4.75% DC; format: cell-based; settings: 5% phosphatidylcholine added to 4.75% DC
Method: FIG. 9 illustrates survival of adipocytes when phosphatidylcholine is added to 4.75% sodium deoxycholate solution. On y-axis, 1 represents 100% survival. All % concentrations are w/v %. Survival of the cells in the absence of DC and PC is on an average 0.113.

CCCCCCCCCCCC[N+](C)(C)CC(=O)[O-] [Empigen, lauryldimethylbetaine, reference compound]
histologic changes in epidermis, dermis, adnexal structures [1]: loss of fibroblast nuclear staining and hyalinization of dermal collagen

alkylaryl polyether alcohol [Triton, reference compound]
fat cell viability (MTS purple dye, absorbance at 490) (porcine fat tissue): comparable loss of purple dye

phosphatidylcholine
effect of phosphatidylcholine on adipolysis (adipocytes): inhibits adipolysis slightly
